According to US20060035995A1, “Photosensitive amine generator, photocurable composition and photoreactive adhesive composition” (Sekisui Chemical Co., Ltd., priority 2000, published 2006):

Columns and labels:
[1] = Solubility in tetrahydrofuran; type: physicochemical; conditions: 1 part by weight of compound in 100 parts by weight of tetrahydrofuran
Description: (§1) Evaluation was made by three ranks, i.e., by 0 if the composition dissolved completely and provided a clear mixture, by ▴ if it almost dissolved but provided a slightly cloudy mixture and by X if it little dissolved.

[2] = Compatibility with the urethane prepolymer (1); type: physicochemical; conditions: 1 part by weight of compound in 100 parts by weight of urethane prepolymer (1)
Description: as §1

[3] = Compatibility with the epoxy resin (EPICOAT 828); type: physicochemical; conditions: 1 part by weight of compound in 100 parts by weight of epoxy resin (EPICOAT 828)
Description: as §1

[4] = radiation at 254 nm; cited from earlier work

Compound	Solubility THF [1]	Solubility Prepolymer [2]	Solubility Epoxy Resin [3]	quantum yield [4]
CC(=NOC(=O)NCCCCCCNC(=O)ON=C(C)c1ccccc1)c1ccccc1 [Example 1]	◯			
C=C(C)C(=O)OCCNC(=O)ON=C(C)c1ccccc1 [Example 4]	◯	◯	◯	
NC(=O)OCc1ccccc1[N+](=O)[O-] [o-nitrobenzyl carbamate]				about 0.13
